Assay results as given in ChEMBL document CHEMBL1201862, “PubChem BioAssay data set” (2004).
Activity calls are given as the source filed them.

How the values were obtained:
[1] = Jurkat T cell cytotoxicity, dose response, cytotoxicity control for P. falciparum gametocyte viability project, luminescence (AID 1117277); type: functional, cell-based;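 note: potency reflects loss of cellular ATP meaning fewer viable cells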
[2] = HEK293 cell cytotoxicity, dose response, cytotoxicity control, plate reader, cherry-picked samples (AID 743446); type: functional, cell-based
[3] = HepG2 cell cytotoxicity, dose response, cytotoxicity control, plate reader, cherry-pick, antagonist series (AID 743416); type: functional, cell-based
[4] = P. falciparum late gametocyte killing, dose response, luminescence (AID 1117278); type: functional, cell-based;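 note: gametocytes exposed to compound for 24 hours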
[5] = CEM21 lymphoblast cell cytotoxicity, dose response, cytotoxicity control for viral fusion inhibitor project, CellTiter-Glo luminescence, cherry-picked (AID 652042); type: functional, cell-based;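 note: potency for signal decrease meaning cytotoxicity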
[6] = inhibitors of HIV Env-driven cell fusion, dose response, cherry-pick (AID 652057); type: functional, cell-based
[7] = non-specific cell cytotoxicity, dose response, cytotoxicity control for PAX8 inhibitor project, plate reader, dry powder samples (AID 743021); type: functional, cell-based
[8] = MC4R antagonists, dose response, counter-screen for LGR2 antagonist project, cell-based, plate reader, cherry pick (AID 743444); type: functional;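 note: transfected HEK 293 cells stimulated with alpha-MSH peptide; potency of inhibitors of the alpha-MSH evoked signal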
[9] = system: BJ; test: cells; type: functional, cell-based; settings: Homo sapiens
[10] = LGR2 antagonists, dose response, cell-based, HEK293, CRE-luciferase reporter, cherry pick, set 2 (AID 743343); type: functional;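 note: transfected cells were stimulated with diluted bursicon conditioned medium after compound addition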
[11] = ZM109 Env clade C HIV-1 fusion inhibitors, dose response, HeLa effector, CEM target cells, luciferase, cherry-pick (AID 652058); type: functional, cell-based
[12] = target: Heat shock protein HSP 90-alpha (Homo sapiens, UniProt P07900); type: functional, organism-based
[13] = system: BJ; test: cytotoxicity toward BJ-TERT fibroblasts, dose response, cell-based, RAS-independent, luminescence (AID 1933); type: functional; settings: Homo sapiens
[14] = cytotoxicity toward DRD oncogenic fibroblasts, dose response, cell-based, non-viral oncogenic, luminescence (AID 1934); type: functional; settings: Homo sapiens
[15] = system: BJ; test: cytotoxicity toward BJ-TERT-LT-ST fibroblasts, dose response, cell-based, RAS-independent, luminescence (AID 1935); type: functional; settings: Homo sapiens;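 note: BJ fibroblasts immortalized with TERT plus LT and ST oncogenes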
[16] = system: INS1; test: beta cell apoptosis inhibitors, cytokine rescue, dose response, luminescence, retest (AID 449756); type: functional, cell-based; settings: Rattus norvegicus;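 note: cell death triggered by IL-1 beta plus TNF-alpha plus IFN-gamma mixture; protective hits raise ATP signal compared with cytokine alone wells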
[17] = A549 cell cytotoxicity, dose response, cytotoxicity control, plate reader, cherry-pick, antagonist series (AID 743412); type: functional, cell-based
[18] = target: Paired box protein Pax-8 (Homo sapiens, UniProt Q06710); test: inhibitors of PAX8-driven TPO luciferase reporter, dose response, RMG-I cells, cherry-pick (AID 687027); type: functional, cell-based;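 note: luciferase reporter driven by Pax8 target thyroperoxidase promoter measured by SteadyGlo luminescence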
Sequence of Paired box protein Pax-8 (Q06710 whole entry, the tested form may be a part): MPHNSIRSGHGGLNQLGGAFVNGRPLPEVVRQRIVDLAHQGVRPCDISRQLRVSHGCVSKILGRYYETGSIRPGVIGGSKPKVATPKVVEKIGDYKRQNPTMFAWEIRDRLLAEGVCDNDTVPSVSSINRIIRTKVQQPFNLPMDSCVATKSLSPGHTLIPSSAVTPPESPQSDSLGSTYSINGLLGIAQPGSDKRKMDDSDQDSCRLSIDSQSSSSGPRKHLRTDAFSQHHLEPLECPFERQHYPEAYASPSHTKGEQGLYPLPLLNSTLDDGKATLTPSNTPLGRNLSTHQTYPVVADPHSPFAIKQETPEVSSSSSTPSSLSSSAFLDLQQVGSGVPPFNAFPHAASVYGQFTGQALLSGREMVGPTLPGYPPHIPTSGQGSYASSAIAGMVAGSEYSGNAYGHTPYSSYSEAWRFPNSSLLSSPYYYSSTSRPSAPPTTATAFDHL

[19] = inhibitors of clade B AD8 Env fusion, dose response, cell-based, cherry-pick (AID 652062); type: functional;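 note: luciferase signal from cell-cell fusion driven by HIV-1 clade B AD8 Env; potency is for inhibitors of fusion seen as a drop in luminescence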
[20] = off-target signal loss in HeLa-CEM21 co-culture – HeLa F-luc CTL cells, cherry-picked, counter-screen for HIV-1 Env fusion inhibitor project, dose response (AID 652040); type: functional, cell-based;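 note: potency for signal decrease marking cytotoxic or nonspecific inhibition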
[21] = target: Prothrombin (Homo sapiens, UniProt P00734); test: Thrombin 1536 HTS Dose Response Confirmation. [Related pubchem assays: 1046 (Thrombin 1536 HTS; hits were confirmed in this assay)]; type: functional
[22] = target: E3 ubiquitin-protein ligase Mdm2 (Homo sapiens, UniProt Q00987); test: enhancers of MDM2-luciferase reporter signal, concentration-effect titration, project on inhibitors of MDM2 ubiquitin ligase, cellular assay, luminescent readout, 384-well plate format (AID 1394); type: functional;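 note: MDM2 E3 inhibitors raise luminescence so EC50 is for signal enhancement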
Sequence of E3 ubiquitin-protein ligase Mdm2 (Q00987 whole entry, the tested form may be a part): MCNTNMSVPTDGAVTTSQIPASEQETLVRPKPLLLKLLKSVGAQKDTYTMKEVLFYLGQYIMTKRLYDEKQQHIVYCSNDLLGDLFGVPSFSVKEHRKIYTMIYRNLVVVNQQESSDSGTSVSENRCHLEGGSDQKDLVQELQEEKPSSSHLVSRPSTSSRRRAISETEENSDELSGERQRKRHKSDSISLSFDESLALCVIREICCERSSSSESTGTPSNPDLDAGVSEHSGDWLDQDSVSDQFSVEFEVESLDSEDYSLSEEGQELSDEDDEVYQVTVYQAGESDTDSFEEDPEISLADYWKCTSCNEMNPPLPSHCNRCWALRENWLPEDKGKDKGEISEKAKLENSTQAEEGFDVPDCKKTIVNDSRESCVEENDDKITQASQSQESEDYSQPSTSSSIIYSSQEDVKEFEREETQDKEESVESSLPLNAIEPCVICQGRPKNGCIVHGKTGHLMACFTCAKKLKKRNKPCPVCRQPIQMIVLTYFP

[23] = target: T1, Oxysterols receptor LXR-beta (Homo sapiens, UniProt P55055); type: functional, cell-based;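 note: Cell-based luminescence dose-response assay of agonist activity at LXR, run as a confirmatory counterscreen to a daf-12 agonist screen; HEK293 cells with Gal4-LXR fusion and GAL4-driven luciferase reporter; agonist potency from rising luciferase signal of a Gal4-LXR reporter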
T1 sequence (P55055 whole entry): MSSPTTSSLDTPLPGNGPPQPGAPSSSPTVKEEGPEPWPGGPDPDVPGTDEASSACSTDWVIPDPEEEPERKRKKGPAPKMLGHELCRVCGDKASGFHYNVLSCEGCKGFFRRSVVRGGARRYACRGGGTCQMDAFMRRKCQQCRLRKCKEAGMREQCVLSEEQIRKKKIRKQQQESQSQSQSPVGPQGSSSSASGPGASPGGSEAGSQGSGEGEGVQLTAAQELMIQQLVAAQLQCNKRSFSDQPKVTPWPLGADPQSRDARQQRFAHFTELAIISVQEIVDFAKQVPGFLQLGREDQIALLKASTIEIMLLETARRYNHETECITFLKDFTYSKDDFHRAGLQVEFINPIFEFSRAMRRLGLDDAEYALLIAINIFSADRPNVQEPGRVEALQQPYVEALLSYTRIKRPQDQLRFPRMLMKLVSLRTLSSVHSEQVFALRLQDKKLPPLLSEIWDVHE

[24] = cells
[25] = target: T2, 14-3-3 protein gamma (Homo sapiens, UniProt P61981); test: modulators of 14-3-3 gamma client binding – dose response (AID 711); type: functional
T2 sequence (P61981 whole entry): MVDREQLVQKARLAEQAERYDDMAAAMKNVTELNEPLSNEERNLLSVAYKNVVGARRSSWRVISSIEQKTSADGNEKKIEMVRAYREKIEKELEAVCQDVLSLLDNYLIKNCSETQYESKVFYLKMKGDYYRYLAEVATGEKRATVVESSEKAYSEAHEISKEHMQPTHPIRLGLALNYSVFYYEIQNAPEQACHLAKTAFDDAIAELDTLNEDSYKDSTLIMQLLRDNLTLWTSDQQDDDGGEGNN

[26] = target: T3, Heat shock factor protein 1 (Mus musculus, UniProt P38532); test: inhibition of MG132-induced HSE-luciferase signal, confirmation, cell-based, NIH3T3, luminescence, dose retest (AID 2382); type: functional;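 note: NIH3T3 fibroblasts with HSF1-driven luciferase reporter stressed by proteasome inhibitor MG132; luminescence from HSF1-driven luciferase expression after 8 hours of MG132 stress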
T3 sequence (P38532 whole entry): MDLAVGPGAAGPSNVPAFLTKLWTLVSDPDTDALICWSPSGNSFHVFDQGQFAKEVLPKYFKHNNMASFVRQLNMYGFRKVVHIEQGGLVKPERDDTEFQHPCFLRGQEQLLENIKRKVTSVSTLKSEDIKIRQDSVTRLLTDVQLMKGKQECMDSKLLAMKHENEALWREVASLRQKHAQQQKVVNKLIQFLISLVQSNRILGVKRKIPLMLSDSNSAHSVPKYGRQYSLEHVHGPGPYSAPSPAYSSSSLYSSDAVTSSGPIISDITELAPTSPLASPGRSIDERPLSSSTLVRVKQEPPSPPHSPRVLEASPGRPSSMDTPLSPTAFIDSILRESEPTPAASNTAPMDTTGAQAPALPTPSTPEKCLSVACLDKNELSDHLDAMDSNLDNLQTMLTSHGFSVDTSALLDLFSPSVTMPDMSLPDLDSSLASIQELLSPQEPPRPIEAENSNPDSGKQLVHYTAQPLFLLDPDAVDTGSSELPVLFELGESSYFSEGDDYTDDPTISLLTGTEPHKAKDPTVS

[27] = target: T4, Polyadenylate-binding protein 1 (Homo sapiens, UniProt P11940); test: PABP1 MLLE–PAM2 binding inhibitor potency, dose response, biochemical, fluorescence polarization, FITC-PAM2 peptide (AID 602259); type: functional; settings: read-out: IC50_Mean
T4 sequence (P11940 whole entry): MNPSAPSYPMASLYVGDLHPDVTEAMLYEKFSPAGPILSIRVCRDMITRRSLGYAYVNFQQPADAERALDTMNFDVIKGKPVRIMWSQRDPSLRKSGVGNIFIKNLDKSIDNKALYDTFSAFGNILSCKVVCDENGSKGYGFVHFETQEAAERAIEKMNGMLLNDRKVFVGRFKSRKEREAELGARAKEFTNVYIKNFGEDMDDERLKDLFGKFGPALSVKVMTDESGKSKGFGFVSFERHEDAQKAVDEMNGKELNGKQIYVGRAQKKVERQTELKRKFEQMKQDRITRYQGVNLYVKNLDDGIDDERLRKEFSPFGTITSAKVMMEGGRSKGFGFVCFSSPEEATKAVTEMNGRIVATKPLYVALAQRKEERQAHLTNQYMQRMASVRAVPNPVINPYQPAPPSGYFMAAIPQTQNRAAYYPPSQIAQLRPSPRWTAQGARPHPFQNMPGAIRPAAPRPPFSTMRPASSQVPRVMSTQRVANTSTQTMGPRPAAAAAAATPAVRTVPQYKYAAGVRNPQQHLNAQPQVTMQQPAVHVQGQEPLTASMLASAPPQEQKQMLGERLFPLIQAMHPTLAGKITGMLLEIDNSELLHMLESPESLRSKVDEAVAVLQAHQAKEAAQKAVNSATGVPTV

[28] = target: T4, Polyadenylate-binding protein 1; test: PABP1 MLLE–PAM2 interaction inhibitors, dose response, miRNA deadenylation inhibitor project, biochemical, fluorescence polarization, Cy5-PAM2 peptide, secondary (AID 602260); type: functional; settings: read-out: IC50_Mean
[29] = target: T5, Aminopeptidase N (Plasmodium falciparum FcB1/Columbia, UniProt O96935); test: P. falciparum M1AAP inhibitors, biochemical, fluorogenic H-Leu-NHMec substrate, 1536-well (AID 1445); parameters: species or system Plasmodium falciparum 3D7, 3D7
T5 sequence (O96935 whole entry): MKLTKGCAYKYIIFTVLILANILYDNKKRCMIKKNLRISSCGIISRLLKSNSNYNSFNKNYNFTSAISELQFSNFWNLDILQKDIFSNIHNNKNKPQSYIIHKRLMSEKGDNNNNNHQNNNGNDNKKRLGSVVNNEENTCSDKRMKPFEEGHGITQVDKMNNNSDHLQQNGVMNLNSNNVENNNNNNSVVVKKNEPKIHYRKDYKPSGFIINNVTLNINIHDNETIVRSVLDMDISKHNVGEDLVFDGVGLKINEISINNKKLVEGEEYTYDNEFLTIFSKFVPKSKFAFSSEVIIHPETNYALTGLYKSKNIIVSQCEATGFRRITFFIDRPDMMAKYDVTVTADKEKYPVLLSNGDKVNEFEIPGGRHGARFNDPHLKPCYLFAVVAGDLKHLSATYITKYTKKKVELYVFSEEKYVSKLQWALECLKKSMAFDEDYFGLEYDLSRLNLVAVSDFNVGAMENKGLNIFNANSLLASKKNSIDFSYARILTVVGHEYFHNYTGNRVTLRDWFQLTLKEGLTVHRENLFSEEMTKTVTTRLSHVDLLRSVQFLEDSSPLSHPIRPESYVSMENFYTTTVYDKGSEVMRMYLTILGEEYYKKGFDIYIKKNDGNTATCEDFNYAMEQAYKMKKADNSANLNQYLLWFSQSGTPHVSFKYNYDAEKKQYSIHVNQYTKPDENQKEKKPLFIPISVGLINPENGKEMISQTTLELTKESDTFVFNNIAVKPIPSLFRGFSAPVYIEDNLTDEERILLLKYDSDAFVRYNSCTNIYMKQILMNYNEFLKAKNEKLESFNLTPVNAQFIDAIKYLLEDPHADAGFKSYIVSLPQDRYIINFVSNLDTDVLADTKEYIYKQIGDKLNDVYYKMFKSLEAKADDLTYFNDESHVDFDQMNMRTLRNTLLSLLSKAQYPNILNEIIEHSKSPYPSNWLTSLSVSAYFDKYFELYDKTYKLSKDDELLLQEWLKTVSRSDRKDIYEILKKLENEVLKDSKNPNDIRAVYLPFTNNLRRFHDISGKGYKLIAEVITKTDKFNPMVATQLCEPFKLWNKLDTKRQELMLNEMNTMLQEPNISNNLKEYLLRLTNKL

[30] = target: Endoplasmic reticulum aminopeptidase 1 (Homo sapiens, UniProt Q9NZ08); test: ERAP1 aminopeptidase inhibitors, dose response, biochemical, cherry-pick, set 2, plate reader (AID 743314)
Sequence of Endoplasmic reticulum aminopeptidase 1 (Q9NZ08 whole entry): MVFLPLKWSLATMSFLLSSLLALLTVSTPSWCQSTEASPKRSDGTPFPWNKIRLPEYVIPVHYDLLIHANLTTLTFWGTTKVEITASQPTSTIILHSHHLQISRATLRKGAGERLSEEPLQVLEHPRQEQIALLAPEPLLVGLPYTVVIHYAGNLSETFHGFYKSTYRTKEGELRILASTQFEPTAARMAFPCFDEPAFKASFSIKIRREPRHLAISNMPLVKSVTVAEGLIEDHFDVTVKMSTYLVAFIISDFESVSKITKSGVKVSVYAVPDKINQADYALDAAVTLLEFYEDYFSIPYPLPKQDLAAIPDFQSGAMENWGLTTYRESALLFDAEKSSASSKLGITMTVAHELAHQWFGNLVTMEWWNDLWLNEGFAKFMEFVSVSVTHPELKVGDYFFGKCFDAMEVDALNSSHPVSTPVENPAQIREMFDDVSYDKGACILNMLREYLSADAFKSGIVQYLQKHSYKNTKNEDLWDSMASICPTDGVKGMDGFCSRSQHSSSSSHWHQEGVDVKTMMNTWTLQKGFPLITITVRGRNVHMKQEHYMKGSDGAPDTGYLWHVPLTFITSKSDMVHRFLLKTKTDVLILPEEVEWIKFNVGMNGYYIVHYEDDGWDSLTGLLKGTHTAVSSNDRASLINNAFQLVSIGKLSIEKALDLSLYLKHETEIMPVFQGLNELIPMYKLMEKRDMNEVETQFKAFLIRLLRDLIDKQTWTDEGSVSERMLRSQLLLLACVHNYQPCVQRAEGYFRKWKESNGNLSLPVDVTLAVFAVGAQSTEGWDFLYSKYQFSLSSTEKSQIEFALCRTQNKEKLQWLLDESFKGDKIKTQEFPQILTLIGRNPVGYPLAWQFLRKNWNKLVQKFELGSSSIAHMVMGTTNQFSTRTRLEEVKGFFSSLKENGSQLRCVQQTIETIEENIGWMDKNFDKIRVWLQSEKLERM

[31] = target: Cytochrome P450 2D6 (Homo sapiens, UniProt P10635);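 note: CYP2D6 member of a cytochrome P450 panel assay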
Sequence of Cytochrome P450 2D6 (P10635 whole entry): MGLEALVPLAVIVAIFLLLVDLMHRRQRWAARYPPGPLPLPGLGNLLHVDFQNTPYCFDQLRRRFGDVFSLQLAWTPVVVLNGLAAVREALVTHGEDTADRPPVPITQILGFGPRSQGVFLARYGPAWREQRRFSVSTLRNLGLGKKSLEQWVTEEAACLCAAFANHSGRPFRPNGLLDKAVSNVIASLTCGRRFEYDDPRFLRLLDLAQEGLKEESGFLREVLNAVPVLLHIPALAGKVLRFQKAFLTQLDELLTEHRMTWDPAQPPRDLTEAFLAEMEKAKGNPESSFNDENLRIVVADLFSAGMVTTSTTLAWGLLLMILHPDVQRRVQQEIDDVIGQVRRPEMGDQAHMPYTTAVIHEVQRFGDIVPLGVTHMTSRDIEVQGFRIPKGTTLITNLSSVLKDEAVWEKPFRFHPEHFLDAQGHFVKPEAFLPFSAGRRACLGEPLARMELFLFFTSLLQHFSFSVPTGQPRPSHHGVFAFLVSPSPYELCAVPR

[32] = target: Cytochrome P450 2C19 (Homo sapiens, UniProt P33261); test: Cytochrome panel assay with activity outcomes. Panel member name: p450-cyp2c19 Compounds with AC50 equal or less than 10 uM are considered active; type: functional
Sequence of Cytochrome P450 2C19 (P33261 whole entry): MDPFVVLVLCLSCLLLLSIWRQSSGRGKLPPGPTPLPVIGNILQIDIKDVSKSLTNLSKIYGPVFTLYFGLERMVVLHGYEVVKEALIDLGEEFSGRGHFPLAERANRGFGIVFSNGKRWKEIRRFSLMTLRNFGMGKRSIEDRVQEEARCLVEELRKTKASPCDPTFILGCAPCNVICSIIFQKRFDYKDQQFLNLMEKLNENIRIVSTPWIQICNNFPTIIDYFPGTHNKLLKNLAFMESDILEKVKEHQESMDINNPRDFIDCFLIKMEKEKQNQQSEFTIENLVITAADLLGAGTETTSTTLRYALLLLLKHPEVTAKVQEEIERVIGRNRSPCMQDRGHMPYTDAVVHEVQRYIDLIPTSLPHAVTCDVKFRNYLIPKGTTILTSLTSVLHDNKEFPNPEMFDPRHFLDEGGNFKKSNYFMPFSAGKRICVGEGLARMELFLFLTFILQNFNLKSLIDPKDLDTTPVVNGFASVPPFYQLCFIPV

[33] = target: Cytochrome P450 2C9 (Homo sapiens, UniProt P11712)
Sequence of Cytochrome P450 2C9 (P11712 whole entry): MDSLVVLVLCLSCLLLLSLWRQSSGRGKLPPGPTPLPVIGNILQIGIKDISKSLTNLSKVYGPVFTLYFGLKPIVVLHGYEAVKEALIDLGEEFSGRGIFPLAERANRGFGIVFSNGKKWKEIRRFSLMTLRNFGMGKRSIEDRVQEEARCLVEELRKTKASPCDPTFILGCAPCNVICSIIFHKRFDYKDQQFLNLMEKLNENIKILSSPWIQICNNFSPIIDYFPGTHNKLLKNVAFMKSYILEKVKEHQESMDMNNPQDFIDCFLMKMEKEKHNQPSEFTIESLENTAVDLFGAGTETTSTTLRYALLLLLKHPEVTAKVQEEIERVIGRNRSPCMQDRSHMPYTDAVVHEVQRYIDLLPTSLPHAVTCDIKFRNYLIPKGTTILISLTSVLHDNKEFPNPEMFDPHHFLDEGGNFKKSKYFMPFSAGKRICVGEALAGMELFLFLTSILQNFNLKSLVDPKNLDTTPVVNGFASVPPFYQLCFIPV

SMILES: Cc1nn(-c2nc3ccccc3[nH]2)c(=O)c2ccccc12
- IC50 [1]: 2.41 µM (active)
- AC50 [2]: 2.33 µM (active)
- AC50 [3]: 14.8 µM (active)
- IC50 [4]: 8.6 µM (active)
- AC50 [5]: 2.08 µM (active)
- AC50 [6]: 0.534 µM (active)
- AC50 [7]: 1.72 µM (active)
- AC50 [8]: 0.352 µM (active)
- EC50 [9]: 1.04 µM (active)
- AC50 [10]: 0.352 µM (active)
- AC50 [11]: 5.84 µM (active)
- AC50 [12]: 4.97 µM (active)
- EC50 [13]: 1.06 µM (active)
- EC50 [14]: 1.01 µM (active)
- EC50 [15]: 3.5 µM (active)
- AC50 [16]: 1.3 µM (active)
- AC50 [17]: 2.04 µM (active)
- AC50 [18]: 1.54 µM (active)
- AC50 [19]: 1.46 µM (active)
- AC50 [20]: 1.36 µM (active)

SMILES: COc1ccc(C(=O)n2ncc(C#N)c2N)cc1
- IC50 [21]: 15.1 µM (active)

SMILES: COc1cc2nc(CN(C)Cc3ccc(F)cc3)nc(O)c2cc1OC
- IC50 [1]: > 83.2 µM (inactive)
- IC50 [4]: > 109 µM (inactive)

SMILES: COc1ccc(N2C(S)=NC(=Nc3ccccc3)C23CCCCC3)cc1
- IC50 [21]: > 50 µM (not active)

SMILES: CCCN(CCC)CCNc1c(NC2CCN(C(=O)OCC)CC2)c(=O)c1=O
- EC50 [22]: 16.1 µM (not active)

SMILES: CC(C)(C)c1ccc(Nc2[nH]nc3ccccc23)cc1
- EC50 [23]: > 67.6 µM (inactive)
- EC50 [24]: > 67.6 µM (inactive)

SMILES: CCCCC1(C(=O)OCC)CC(CN2CCOCC2)OC1=O (stereo not drawn)
- IC50 [25]: > 50 µM (not active)

SMILES: OCc1cccc(-c2cnc3c(Nc4cccc(OC(F)(F)C(F)F)c4)nccn23)c1
- AC50 [2]: > 52 µM (inactive)
- AC50 [3]: 41.7 µM (active)
- AC50 [8]: 26.8 µM (active)
- AC50 [10]: 23.8 µM (active)
- AC50 [17]: 43.3 µM (active)

SMILES: Cc1ccccc1CS(=O)(=O)Cc1ccc(C(=O)NCc2ccccn2)o1
- IC50 [25]: 50 µM (not active)

SMILES: CN(C)c1nc(OCCNC(=O)COc2ccc(Cl)cc2Cl)nc(N(C)C)n1
- IC50 [1]: > 83.3 µM (inactive)
- IC50 [4]: > 109 µM (inactive)
- EC50 [26]: > 195 µM (not active)

SMILES: N#C[C@H]1[C@H](c2ccc(C#Cc3ccccc3F)cc2)[C@H](CO)N1C(=O)C1CC1
- AC50 [2]: 15.4 µM (active)
- AC50 [3]: 34.7 µM (active)
- AC50 [8]: 12.8 µM (active)
- AC50 [10]: 16.4 µM (active)
- AC50 [17]: 23.9 µM (active)

SMILES: CCN(CC)Cc1c(O)c(Cl)cc2c(C)cc(=O)oc12
- IC50 [27]: 39.1 µM (inactive)
- IC50 [28]: > 66 µM (inactive)
- IC50 [29]: 48.6 µM (active)
- AC50 [30]: 4.88 µM (active)

SMILES: c1ccc2c(-c3nnc4n3CCCCC4)cc(-c3ccncc3)nc2c1
- IC50 [21]: > 50 µM (not active)

SMILES: COc1ccc(C)cc1NC(=O)C(OC(=O)CNC(=O)c1cc(C)cc(C)c1)c1ccccc1 (stereo not drawn)
- EC50 [22]: 7.51 µM (not active)

SMILES: Cn1cc(-c2nnc(-c3ccccc3)o2)c2ccccc21
- AC50 [31]: 3.55 µM (inconclusive)
- EC50 [23]: > 67.5 µM (inactive)
- EC50 [24]: > 67.5 µM (inactive)
- AC50 [32]: inconclusive
- AC50 [33]: inconclusive
